Measured values as given in patent publication US20250041463A1, “FLUORINE-18 LABELED COMPOSITIONS AND THEIR USE IN IMAGING OF BIOLOGICAL TISSUE” (CORNELL UNIVERSITY, priority 2018, published 2025).

Tested on: Nestin tv-a derived DIPG
Assay: Cell viability reference control (dasatinib)
Type: cell-based
Conditions: four parameter logistic standard curve regression, R^2=0.972

Cc1nc(Nc2ncc(C(=O)Nc3c(C)cccc3Cl)s2)cc(N2CCN(CCO)CC2)n1 [dasatinib]
IC50: 0.019 ± 0.02 µM
